{
  "source": "patent US6916446B1",
  "about": "“Bioreactor method, apparatus and product thereby” (The United States of America as represented by the …, priority 2002, dated 2005)",
  "key": {"strain IMB-1 [1]": {"tested_on": "strain IMB-1", "assay": "Growth of strain IMB-1 on substrates in mineral salts medium (Balch tubes)"}, "strain IMB-1 [2]": {"tested_on": "strain IMB-1", "assay": "14C-MeBr oxidation assay on washed cell suspensions", "format": "cell-based, strain IMB-1 (ATCC 202197)", "conditions": "for MeBr oxidized: cells grown on the substrate indicated; for rate of MeBr oxidation, normalized for cell densities: cells grown on methylamine"}, "[3]": {"conditions": "substrate as electron donor / carbon and energy source"}},
  "note": "Like-named read-outs stand apart in the source and are kept apart here.",
  "data": [
    {"compound": "O=CO", "note": "[formate]", "values": [
      {"measurement": "growth of strain IMB-1 on the substrate (in words)", "setting": "strain IMB-1 [1]", "result": "no growth occurred"}
    ]},
    {"compound": "O=C(O)CC(O)(CC(=O)O)C(=O)O", "note": "[citrate]", "values": [
      {"measurement": "growth of strain IMB-1 on the substrate (in words)", "setting": "strain IMB-1 [1]; [3]", "result": "no growth occurred"}
    ]},
    {"compound": "CF", "note": "[methyl fluoride]", "values": [
      {"measurement": "metabolized by strain IMB-1", "setting": "strain IMB-1 [1]", "result": "not metabolized"},
      {"measurement": "effect on uptake of MeBr or growth of IMB-1 on MeBr", "setting": "strain IMB-1 [1]; 2-22 μmol/tube added", "result": "did not affect"},
      {"measurement": "growth of strain IMB-1 on the substrate (in words)", "setting": "strain IMB-1 [1]; [3]", "result": "no growth occurred"},
      {"measurement": "MeBr oxidized", "setting": "strain IMB-1 [2]", "result": 0.0, "unit": "pmol/10^6 cells/h"}
    ]},
    {"compound": "CNC", "note": "[dimethylamine]", "values": [
      {"measurement": "growth of strain IMB-1 on the substrate (in words)", "setting": "strain IMB-1 [1]", "result": "support growth"}
    ]},
    {"compound": "O=C(O)CC(O)C(=O)O", "note": "(stereo not drawn) [malate]", "values": [
      {"measurement": "growth of strain IMB-1 on the substrate (in words)", "setting": "strain IMB-1 [1]; [3]", "result": "weak growth"}
    ]},
    {"compound": "CN(C)C", "note": "[trimethylamine]", "values": [
      {"measurement": "growth of strain IMB-1 on the substrate (in words)", "setting": "strain IMB-1 [1]; [3]", "result": "support growth"}
    ]},
    {"compound": "CO", "note": "[methanol]", "values": [
      {"measurement": "growth of strain IMB-1 on the substrate (in words)", "setting": "strain IMB-1 [1]; [3]", "result": "no growth occurred"}
    ]},
    {"compound": "CI", "note": "[methyl iodide]", "values": [
      {"measurement": "growth of strain IMB-1 on the substrate (in words)", "setting": "strain IMB-1 [1]; [3]", "result": "Growth was also obtained"},
      {"measurement": "rate of MeBr oxidation, normalized for cell densities", "setting": "strain IMB-1 [2]; cultures incubated with 2 μmoles Mel", "result": 1.4, "unit": "pmol/10^6 cells/h"},
      {"measurement": "rate of MeBr oxidation, normalized for cell densities", "setting": "strain IMB-1 [2]; cultures incubated with 5 μmoles Mel", "result": 1.1, "unit": "pmol/10^6 cells/h"},
      {"measurement": "rate of MeBr oxidation, normalized for cell densities", "setting": "strain IMB-1 [2]; cultures incubated with 8 μmoles Mel", "result": 1.1, "unit": "pmol/10^6 cells/h"},
      {"measurement": "rate of MeBr oxidation, normalized for cell densities", "setting": "strain IMB-1 [2]; cultures incubated with 10 μmoles Mel", "result": 1.4, "unit": "pmol/10^6 cells/h"},
      {"measurement": "MeBr oxidized", "setting": "strain IMB-1 [2]", "result": 2.4, "unit": "pmol/10^6 cells/h"}
    ]},
    {"compound": "O=C(O)/C=C/C(=O)O", "note": "[fumarate]", "values": [
      {"measurement": "growth of strain IMB-1 on the substrate (in words)", "setting": "strain IMB-1 [1]; [3]", "result": "no growth occurred"}
    ]},
    {"compound": "C", "note": "[methane]", "values": [
      {"measurement": "growth of strain IMB-1 on the substrate (in words)", "setting": "strain IMB-1 [1]; [3]", "result": "no growth occurred"}
    ]},
    {"compound": "CN", "note": "[monomethylamine]", "values": [
      {"measurement": "growth of strain IMB-1 on the substrate (in words)", "setting": "strain IMB-1 [1]; [3]", "result": "support growth"}
    ]},
    {"compound": "CC(=O)O", "note": "[acetate]", "values": [
      {"measurement": "growth of strain IMB-1 on the substrate (in words)", "setting": "strain IMB-1 [1]", "result": "grows"}
    ]},
    {"compound": "O=C(O)CCC(=O)O", "note": "[succinate]", "values": [
      {"measurement": "growth of strain IMB-1 on the substrate (in words)", "setting": "strain IMB-1 [1]; [3]", "result": "no growth occurred"}
    ]}
  ]
}
